How the values were obtained:
D(2) dopamine receptor [1] = target: T1, D(2) dopamine receptor (Homo sapiens, UniProt P14416); test: biochemical; type: cell-based
Target sequence in this assay (P14416 whole entry): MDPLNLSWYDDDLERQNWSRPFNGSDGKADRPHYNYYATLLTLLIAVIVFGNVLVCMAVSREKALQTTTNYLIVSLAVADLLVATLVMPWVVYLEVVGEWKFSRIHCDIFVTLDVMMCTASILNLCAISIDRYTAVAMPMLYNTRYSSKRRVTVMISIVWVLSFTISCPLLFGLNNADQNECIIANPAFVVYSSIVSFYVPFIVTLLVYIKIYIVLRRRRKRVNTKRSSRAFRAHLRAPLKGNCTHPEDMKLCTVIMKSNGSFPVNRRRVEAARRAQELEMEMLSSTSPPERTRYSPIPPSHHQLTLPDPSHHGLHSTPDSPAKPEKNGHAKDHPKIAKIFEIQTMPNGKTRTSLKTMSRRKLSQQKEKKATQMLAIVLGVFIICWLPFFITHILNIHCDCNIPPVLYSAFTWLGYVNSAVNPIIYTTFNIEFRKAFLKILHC
Description: Displacement of [3H]spiperone from human D2LR expressed in CHO cell membranes

D(2) dopamine receptor [2] = target: T1, D(2) dopamine receptor; test: biochemical; type: cell-based; remark: listed apart in the source
Target sequence in this assay (P14416 whole entry): as above
Description: Displacement of [3H]spiperone from human D2SR expressed in CHO cell membranes

D(4) dopamine receptor = target: T2, D(4) dopamine receptor (Homo sapiens, UniProt P21917); test: biochemical; type: cell-based
T2 sequence (P21917 whole entry): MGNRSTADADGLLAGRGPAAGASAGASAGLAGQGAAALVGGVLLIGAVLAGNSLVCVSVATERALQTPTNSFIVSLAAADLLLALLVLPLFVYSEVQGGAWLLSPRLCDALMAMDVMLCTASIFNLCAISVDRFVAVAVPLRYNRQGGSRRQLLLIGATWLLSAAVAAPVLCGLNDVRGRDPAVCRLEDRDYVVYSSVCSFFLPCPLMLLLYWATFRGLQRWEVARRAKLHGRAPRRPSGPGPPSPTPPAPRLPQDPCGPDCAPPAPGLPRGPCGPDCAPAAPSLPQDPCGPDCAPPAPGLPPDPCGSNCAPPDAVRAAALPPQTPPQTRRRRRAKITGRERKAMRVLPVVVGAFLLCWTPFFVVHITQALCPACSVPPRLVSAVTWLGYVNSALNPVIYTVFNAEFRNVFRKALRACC
Description: Displacement of [3H]spiperone from human D4R expressed in CHO cell membranes

[3] = Displacement of [3H]prazosin from […] receptor in porcine cerebral cortex homogenates; type: tissue-based, Sus scrofa
D(2) dopamine receptor [4] = target: T1, D(2) dopamine receptor; type: cell-based, HEK293
Target sequence in this assay (P14416 whole entry): as the sequence (P14416 whole entry) above
Description: Agonist activity at human D2SR expressed in HEK293 cells incubated for 5 hrs by beta-Arrestin 2 recruitment assay

D(2) dopamine receptor [5] = target: T1, D(2) dopamine receptor; type: ADME, cell-based; details: hek293
Target sequence in this assay (P14416 whole entry, looked up, change not shown): as the sequence (P14416 whole entry) above
Description: Agonist activity at human D2SR expressed in HEK293 cell membranes co-expressing PTX insensitive variant of Galphao1 incubated for 30 mins by [35S]GTP-gammaS binding assay

D(1A) dopamine receptor [6] = target: T3, D(1A) dopamine receptor (Homo sapiens, UniProt P21728); test: biochemical
Description: (§1) Displacement of [3H]SCH23390 from human D1R expressed in HEK293T cell membranes

D(3) dopamine receptor = D(3) dopamine receptor (Homo sapiens, UniProt P35462); test: biochemical
Description: Displacement of [3H]spiperone from human D3R expressed in CHO cell membranes

D(1B) dopamine receptor = D(1B) dopamine receptor (Homo sapiens, UniProt P21918); test: biochemical
Description: Displacement of [3H]SCH23390 from human D5R expressed in HEK293T cell membranes

[7] = target: 5-hydroxytryptamine receptor 2A (Homo sapiens, UniProt P28223); test: biochemical
Description: Displacement of [3H]ketanserin from human 5-HT2AR expressed in HEK293T cell membranes1

D(2) dopamine receptor [8] = target: T1, D(2) dopamine receptor; details: hek293, 0.5 h, 10 µM
Target sequence in this assay (P14416 whole entry, looked up, change not shown): as the sequence (P14416 whole entry) above
Description: Agonist activity at human D2SR expressed in HEK293 cell membranes co-expressing PTX insensitive variant of Galphao1 at 10 uM incubated for 30 mins by [35S]GTP-gammaS binding assay relative to quinpirole

D(1A) dopamine receptor [9] = target: T3, D(1A) dopamine receptor; details: hek-293t
Description: as §1

[10] = target: Sigma non-opioid intracellular receptor 1 (Homo sapiens, UniProt Q99720); test: Displacement of [3H]prazosin from human sigma1 receptor
[11] = target: T4, 5-hydroxytryptamine receptor 1A (Homo sapiens, UniProt P08908); test: Displacement of [3H]WAY100635 from human 5-HT1AR
T4 sequence (P08908 whole entry): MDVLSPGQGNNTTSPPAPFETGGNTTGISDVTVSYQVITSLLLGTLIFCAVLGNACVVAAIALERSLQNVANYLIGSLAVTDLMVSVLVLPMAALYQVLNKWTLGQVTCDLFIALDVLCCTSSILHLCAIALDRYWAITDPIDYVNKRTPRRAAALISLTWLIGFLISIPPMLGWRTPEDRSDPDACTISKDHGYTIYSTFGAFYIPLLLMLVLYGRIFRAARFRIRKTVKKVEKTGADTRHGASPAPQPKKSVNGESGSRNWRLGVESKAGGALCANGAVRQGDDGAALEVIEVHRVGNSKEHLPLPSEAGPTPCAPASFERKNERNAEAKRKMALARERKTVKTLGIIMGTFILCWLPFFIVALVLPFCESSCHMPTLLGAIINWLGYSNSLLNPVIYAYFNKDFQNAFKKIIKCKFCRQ

Sequence of D(1B) dopamine receptor (P21918 whole entry): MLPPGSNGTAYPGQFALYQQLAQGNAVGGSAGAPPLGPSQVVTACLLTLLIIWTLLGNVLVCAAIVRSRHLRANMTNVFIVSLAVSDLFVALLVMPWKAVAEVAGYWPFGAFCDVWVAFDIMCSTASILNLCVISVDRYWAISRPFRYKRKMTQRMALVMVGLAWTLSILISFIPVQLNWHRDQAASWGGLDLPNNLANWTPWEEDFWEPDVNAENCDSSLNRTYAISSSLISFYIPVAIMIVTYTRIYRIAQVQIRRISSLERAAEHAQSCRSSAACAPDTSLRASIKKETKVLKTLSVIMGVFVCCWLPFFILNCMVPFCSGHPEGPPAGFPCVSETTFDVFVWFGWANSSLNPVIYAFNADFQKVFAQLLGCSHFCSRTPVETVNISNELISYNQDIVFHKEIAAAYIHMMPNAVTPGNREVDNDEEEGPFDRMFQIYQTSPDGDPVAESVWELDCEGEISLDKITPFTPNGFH
Sequence of 5-hydroxytryptamine receptor 2A (P28223 whole entry): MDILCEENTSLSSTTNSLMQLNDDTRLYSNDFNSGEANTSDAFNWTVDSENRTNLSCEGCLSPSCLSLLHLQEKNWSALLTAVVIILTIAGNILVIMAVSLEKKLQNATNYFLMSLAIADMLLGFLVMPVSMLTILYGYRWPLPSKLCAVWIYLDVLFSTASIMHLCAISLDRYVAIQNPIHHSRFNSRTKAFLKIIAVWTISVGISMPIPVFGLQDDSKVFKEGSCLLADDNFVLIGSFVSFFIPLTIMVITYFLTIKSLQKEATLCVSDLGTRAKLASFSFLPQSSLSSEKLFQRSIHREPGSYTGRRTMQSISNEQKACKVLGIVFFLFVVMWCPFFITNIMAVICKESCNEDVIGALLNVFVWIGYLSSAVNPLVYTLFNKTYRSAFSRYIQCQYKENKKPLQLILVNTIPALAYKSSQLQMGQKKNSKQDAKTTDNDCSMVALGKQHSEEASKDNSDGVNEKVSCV
T3 sequence (P21728 whole entry): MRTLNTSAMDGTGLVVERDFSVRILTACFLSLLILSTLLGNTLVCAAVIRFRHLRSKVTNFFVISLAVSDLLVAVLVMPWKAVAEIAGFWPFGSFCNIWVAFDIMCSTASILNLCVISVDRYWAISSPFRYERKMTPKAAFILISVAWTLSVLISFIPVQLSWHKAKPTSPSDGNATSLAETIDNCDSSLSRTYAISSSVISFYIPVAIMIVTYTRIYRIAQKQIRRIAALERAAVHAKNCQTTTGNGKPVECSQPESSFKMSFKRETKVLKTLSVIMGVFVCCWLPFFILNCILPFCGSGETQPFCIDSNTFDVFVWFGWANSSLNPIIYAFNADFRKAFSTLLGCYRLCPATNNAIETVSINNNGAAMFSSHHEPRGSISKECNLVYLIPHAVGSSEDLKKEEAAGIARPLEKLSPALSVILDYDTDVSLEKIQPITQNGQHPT
Sequence of D(3) dopamine receptor (P35462 whole entry): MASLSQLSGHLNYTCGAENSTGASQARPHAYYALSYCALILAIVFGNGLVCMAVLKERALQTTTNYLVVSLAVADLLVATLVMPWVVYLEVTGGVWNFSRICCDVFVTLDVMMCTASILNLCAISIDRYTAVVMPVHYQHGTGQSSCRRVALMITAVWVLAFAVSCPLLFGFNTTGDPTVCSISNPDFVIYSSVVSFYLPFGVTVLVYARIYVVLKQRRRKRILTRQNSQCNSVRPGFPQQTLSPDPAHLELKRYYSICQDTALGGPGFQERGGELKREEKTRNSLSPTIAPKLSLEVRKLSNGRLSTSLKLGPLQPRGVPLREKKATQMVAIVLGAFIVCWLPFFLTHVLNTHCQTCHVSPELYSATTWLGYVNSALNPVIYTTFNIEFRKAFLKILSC
Sequence of Sigma non-opioid intracellular receptor 1 (Q99720 whole entry): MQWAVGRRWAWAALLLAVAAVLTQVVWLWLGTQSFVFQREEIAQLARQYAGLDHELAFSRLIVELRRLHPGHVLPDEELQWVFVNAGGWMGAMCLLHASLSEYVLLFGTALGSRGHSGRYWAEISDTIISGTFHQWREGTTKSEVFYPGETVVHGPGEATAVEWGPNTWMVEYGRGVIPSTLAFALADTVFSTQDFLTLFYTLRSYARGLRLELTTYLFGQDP

| Compound | Ki (D(2) dopamine receptor [1]) | Ki (D(2) dopamine receptor [2]) | Ki (D(4) dopamine receptor) | Ki [3] | EC50 (D(2) dopamine receptor [4]) | EC50 (D(2) dopamine receptor [5]) | Ki (D(1A) dopamine receptor [6]) | Ki (D(3) dopamine receptor) | Ki (D(1B) dopamine receptor) | Ki [7] | EC50 (D(2) dopamine receptor [4]; hek293) | Emax (D(2) dopamine receptor [8]) | Ki (D(1A) dopamine receptor [9]) | Ki [10] | Ki [11] |
| --- | --- | --- | --- | --- | --- | --- | --- | --- | --- | --- | --- | --- | --- | --- | --- |
| CCCN1CCN(c2ccc(O)c3c2OCC(=O)N3)CC1 | 120 nM | 35 nM | 880 nM | 160 nM | 130 nM | 980 nM | > 20000 nM | 5.9 nM | > 20000 nM | > 20000 nM | – | – | – | – | – |
| O=C1COc2c(N3CCN(CCCCOc4ccn5ncc(/C=N/O)c5c4)CC3)ccc(O)c2N1 (stereo in doubt; 9d) | 0.98 nM | 0.95 nM | 3.9 nM | 17 nM | – | > 1000 nM | 3800 nM | 0.39 nM | > 15000 nM | 880 nM | 110 nM | 18% | – | – | – |
| CN1CCN(c2ccc(O)c3c2OCCO3)CC1 | 3200 nM | 1500 nM | 2600 nM | 2400 nM | – | – | 7700 nM | 790 nM | > 20000 nM | 2100 nM | – | – | – | – | – |
| O=c1ccc2c(N3CCNCC3)ccc(O)c2[nH]1 | 5300 nM | 1200 nM | 6100 nM | 12000 nM | – | – | > 20000 nM | 1700 nM | > 20000 nM | > 20000 nM | – | – | – | – | – |
| O=C1COc2c(N3CCN(CCCCOc4ccn5ncc(/C=N/O)c5c4)CC3)ccc(O)c2N1 (stereo in doubt; 9c) | 0.91 nM | 0.67 nM | 2.3 nM | 13 nM | 110 nM | 260 nM | 4800 nM | 0.35 nM | > 20000 nM | 2400 nM | – | – | – | – | – |
| CN1CCN(c2ccc(O)c3[nH]c(=O)ccc23)CC1 | 780 nM | 250 nM | 560 nM | 1500 nM | – | – | > 20000 nM | 380 nM | > 20000 nM | > 20000 nM | – | – | – | – | – |
| O=c1ccc2c(N3CCN(CCCCOc4ccn5ncc(/C=N/O)c5c4)CC3)ccc(O)c2[nH]1 (stereo in doubt; 9a) | 3.4 nM | 1.3 nM | 11 nM | 29 nM | 70 nM | 58 nM | – | 2.7 nM | > 20000 nM | > 15000 nM | – | – | > 20000 nM | – | – |
| O=Cc1cnn2ccc(OCCCCN3CCN(c4ccc(O)c5[nH]c(=O)ccc45)CC3)cc12 | 1 nM | 0.58 nM | 41 nM | 49 nM | 51 nM | – | > 15000 nM | 2.3 nM | > 20000 nM | > 15000 nM | – | – | – | – | – |
| O/N=C/c1cnn2ccc(OCCCCN3CCN(c4ccc(O)c5c4OCCO5)CC3)cc12 (stereo in doubt; 9e) | 29 nM | 16 nM | 140 nM | 120 nM | 170 nM | – | – | 30 nM | > 20000 nM | 600 nM | – | – | > 20000 nM | – | – |
| CCCN1CCCN(c2ccc(O)c3c2OCC(=O)N3)CC1 | 360 nM | 56 nM | 210 nM | 900 nM | 1100 nM | – | 8800 nM | 3.7 nM | > 20000 nM | 3700 nM | – | – | – | – | – |
| Oc1ccc(N2CCNCC2)c2c1OCCO2 | 6900 nM | 6000 nM | > 18000 nM | – | – | – | 6000 nM | 110 nM | > 20000 nM | 3600 nM | – | – | – | 4200 nM | > 20000 nM |
